Results reported in patent US8952024B2, “Herbicidal pyrimidone derivatives” (E I du Pont de Nemours and Company, priority 2009, dated 2015).

What was measured:
Type in all cases: in vivo
[1] = tested on: barnyardgrass (Echinochloa crus-galli); assay: Test A pre-/postemergence plant response
In short: (§1)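 Greenhouse trial, ~10 days. Soil (loam/sand) sprayed preemergence after seeding; emerged plants (1–2 leaf, 2–10 cm) sprayed postemergence in parallel. Response = visual injury vs untreated control, 0–100.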

[2] = tested on: corn (Zea mays); assay: Test A pre-/postemergence plant response
In short: as §1

[3] = tested on: giant foxtail (Setaria faberii); assay: Test A pre-/postemergence plant response
In short: as §1

[4] = tested on: large crabgrass (Digitaria sanguinalis); assay: Test A pre-/postemergence plant response
In short: as §1

[5] = tested on: morningglory (Ipomoea spp.); assay: Test A pre-/postemergence plant response
In short: as §1

[6] = tested on: pigweed (Amaranthus retroflexus); assay: Test A pre-/postemergence plant response
In short: as §1

[7] = tested on: velvetleaf (Abutilon theophrasti); assay: Test A pre-/postemergence plant response
In short: as §1

[8] = tested on: wheat (Triticum aestivum); assay: Test A pre-/postemergence plant response
In short: as §1

[9] = tested on: barnyardgrass (Echinochloa crus-galli); assay: Test B flooded paddy test; conditions: for Plant response rating, Flood, Barnyardgrass: 250 g ai/ha, flooded paddy test, visual rating on 0 to 100 scale (0 no effect, 100 complete control) after 13 to 15 days; for Plant response rating, Barnyardgrass: Flood (flooded paddy test), 13 to 15 days; for Barnyardgrass plant response rating: Flood, 31 g ai/ha, scale 0 to 100 (0 no effect, 100 complete control)
In short: (§2)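 Seedlings reaching 2 leaves are flooded 3 cm deep; test material is delivered to that water, which stays at the same depth. Plants remain in a greenhouse 13–15 days and are then scored by eye versus controls from 0 to 100.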

[10] = tested on: ducksalad (Heteranthera limosa); assay: Test B flooded paddy test; conditions: for Plant response rating, Flood, Ducksalad: 250 g ai/ha, flooded paddy test, visual rating on 0 to 100 scale (0 no effect, 100 complete control) after 13 to 15 days; for Plant response rating, Ducksalad: Flood (flooded paddy test), 13 to 15 days; for Ducksalad plant response rating: Flood, 31 g ai/ha, scale 0 to 100 (0 no effect, 100 complete control)
In short: as §2

[11] = tested on: rice (Oryza sativa); assay: Test B flooded paddy test; conditions: for Plant response rating, Flood, Rice: 250 g ai/ha, flooded paddy test, visual rating on 0 to 100 scale (0 no effect, 100 complete control) after 13 to 15 days; for Plant response rating, Rice: Flood (flooded paddy test), 13 to 15 days; for Rice plant response rating: Flood, 31 g ai/ha, scale 0 to 100 (0 no effect, 100 complete control)
In short: as §2

[12] = tested on: umbrella sedge (Cyperus difformis); assay: Test B flooded paddy test; conditions: for Plant response rating, Flood, Sedge, Umbrella: 250 g ai/ha, flooded paddy test, visual rating on 0 to 100 scale (0 no effect, 100 complete control) after 13 to 15 days; for Plant response rating, Sedge, Umbrella: Flood (flooded paddy test), 13 to 15 days; for Sedge, Umbrella plant response rating: Flood, 31 g ai/ha, scale 0 to 100 (0 no effect, 100 complete control)
In short: as §2

[13] = Postemergence, 125 g ai/ha, 0 to 100 scale where 0 is no effect and 100 is complete control
[14] = Postemergence, 500 g ai/ha, 0 to 100 scale, 0 = no effect, 100 = complete control, approx. ten days
[15] = Preemergence, 125 g ai/ha, 0 to 100 scale, 0 = no effect, 100 = complete control
[16] = Preemergence, 500 g ai/ha, visual injury, 0 to 100 scale (0 no effect, 100 complete control), approx. ten days
[17] = 62 g ai/ha, scale of 0 to 100 where 0 is no effect and 100 is complete control
[18] = 125 g ai/ha, scale 0 to 100, 0 is no effect, 100 is complete control
[19] = Preemergence, 500 g ai/ha, 0 to 100 scale, 0 = no effect, 100 = complete control

CCCc1ncc(C(=O)C2=C(O)CCCC2=O)c(=O)n1CC1CCCO1 (stereo not drawn) [Compound 74]
0: Plant response rating, Corn [2, 13] | Plant response rating, Corn [2, 15] | Plant response rating, Corn [2, 16] | Plant response rating, Foxtail, Giant [3, 15] | Plant response rating, Wheat [8, 13] | Plant response rating, Wheat [8, 15] | Plant response rating, Wheat [8, 16] | Plant response rating, Barnyardgrass [9, 17] | Plant response rating, Flood, Ducksalad [10] | Plant response rating, Ducksalad [10, 17] | Plant response rating, Flood, Rice [11] | Plant response rating, Rice [11, 17]
70: Plant response rating, Crabgrass, Large [4, 15] | Plant response rating, Velvetleaf [7, 15]
80: Plant response rating, Barnyardgrass [1, 13] | Plant response rating, Foxtail, Giant [3, 14]
40: Plant response rating, Foxtail, Giant [3, 13] | Plant response rating, Foxtail, Giant [3, 16] | Plant response rating, Morningglory [5, 15] | Plant response rating, Flood, Barnyardgrass [9]
60: Plant response rating, Barnyardgrass [1, 16] | Plant response rating, Morningglory [5, 16] | Plant response rating, Flood, Sedge, Umbrella [12]
90: Plant response rating, Barnyardgrass [1, 14] | Plant response rating, Crabgrass, Large [4, 13] | Plant response rating, Crabgrass, Large [4, 14] | Plant response rating, Crabgrass, Large [4, 16] | Plant response rating, Morningglory [5, 13] | Plant response rating, Pigweed [6, 15] | Plant response rating, Velvetleaf [7, 13] | Plant response rating, Velvetleaf [7, 16]
100: Plant response rating, Morningglory [5, 14] | Plant response rating, Pigweed [6, 13] | Plant response rating, Pigweed [6, 14] | Plant response rating, Pigweed [6, 16] | Plant response rating, Velvetleaf [7, 14]
20: Plant response rating, Corn [2, 14] | Plant response rating, Wheat [8, 14]
30: Plant response rating, Barnyardgrass [1, 15] | Plant response rating, Sedge, Umbrella [12, 17]

Cc1ccccc1-c1ncc(C(=O)C2=C(O)CCCC2=O)c(=O)n1-c1ccccc1 [Compound 82]
15: Plant response rating, Barnyardgrass [9, 18] | Plant response rating, Rice [11, 18]
0: Plant response rating, Barnyardgrass [1, 15] | Plant response rating, Corn [2, 13] | Plant response rating, Corn [2, 15] | Plant response rating, Corn [2, 16] | Plant response rating, Morningglory [5, 15] | Plant response rating, Wheat [8, 13] | Plant response rating, Wheat [8, 14] | Plant response rating, Wheat [8, 15] | Plant response rating, Wheat [8, 16] | Plant response rating, Barnyardgrass [9, 17] | Barnyardgrass plant response rating [9] | Plant response rating, Ducksalad [10, 17] | Plant response rating, Ducksalad [10, 18] | Ducksalad plant response rating [10] | Plant response rating, Rice [11, 17] | Rice plant response rating [11] | Plant response rating, Sedge, Umbrella [12, 17] | Sedge, Umbrella plant response rating [12]
10: Plant response rating, Barnyardgrass [1, 13] | Plant response rating, Barnyardgrass [1, 16] | Plant response rating, Foxtail, Giant [3, 13] | Plant response rating, Foxtail, Giant [3, 15]
100: Plant response rating, Crabgrass, Large [4, 16] | Plant response rating, Morningglory [5, 14] | Plant response rating, Pigweed [6, 14] | Plant response rating, Pigweed [6, 16] | Plant response rating, Velvetleaf [7, 13] | Plant response rating, Velvetleaf [7, 14]
20: Plant response rating, Corn [2, 14] | Plant response rating, Flood, Barnyardgrass [9] | Plant response rating, Flood, Ducksalad [10] | Plant response rating, Flood, Rice [11]
40: Plant response rating, Foxtail, Giant [3, 16] | Plant response rating, Crabgrass, Large [4, 13] | Plant response rating, Sedge, Umbrella [12, 18]
50: Plant response rating, Velvetleaf [7, 15] | Plant response rating, Flood, Sedge, Umbrella [12]
90: Plant response rating, Crabgrass, Large [4, 14] | Plant response rating, Morningglory [5, 13] | Plant response rating, Pigweed [6, 13] | Plant response rating, Pigweed [6, 15] | Plant response rating, Velvetleaf [7, 16]
80: Plant response rating, Foxtail, Giant [3, 14]
60: Plant response rating, Morningglory [5, 16]
70: Plant response rating, Barnyardgrass [1, 14]

CCCn1c(-c2cccc(C(F)(F)F)c2)ncc(C(=O)C2=C(O)CCCC2=O)c1=O [Compound 155]
20: Plant response rating, Corn [2, 13] | Plant response rating, Barnyardgrass [9, 18]
85: Plant response rating, Ducksalad [10, 18] | Plant response rating, Sedge, Umbrella [12, 18]
70: Plant response rating, Crabgrass, Large [4, 13]
80: Plant response rating, Foxtail, Giant [3, 13]
100: Plant response rating, Barnyardgrass [1, 14] | Plant response rating, Morningglory [5, 13] | Plant response rating, Morningglory [5, 14] | Plant response rating, Pigweed [6, 13] | Plant response rating, Pigweed [6, 14] | Plant response rating, Velvetleaf [7, 13] | Plant response rating, Velvetleaf [7, 14] | Plant response rating, Velvetleaf [7, 19] | Plant response rating, Flood, Sedge, Umbrella [12]
30: Plant response rating, Corn [2, 16] | Plant response rating, Foxtail, Giant [3, 15] | Plant response rating, Wheat [8, 14]
45: Plant response rating, Flood, Barnyardgrass [9] | Plant response rating, Flood, Rice [11]
40: Plant response rating, Corn [2, 14]
90: Plant response rating, Barnyardgrass [1, 13] | Plant response rating, Barnyardgrass [1, 16] | Plant response rating, Foxtail, Giant [3, 14] | Plant response rating, Crabgrass, Large [4, 14] | Plant response rating, Crabgrass, Large [4, 16] | Plant response rating, Pigweed [6, 15] | Plant response rating, Pigweed [6, 16]
0: Plant response rating, Corn [2, 15] | Plant response rating, Morningglory [5, 15] | Plant response rating, Morningglory [5, 16] | Plant response rating, Wheat [8, 13] | Plant response rating, Wheat [8, 15] | Plant response rating, Wheat [8, 19] | Plant response rating, Barnyardgrass [9, 17] | Barnyardgrass plant response rating [9] | Ducksalad plant response rating [10] | Plant response rating, Rice [11, 17] | Rice plant response rating [11]
95: Plant response rating, Flood, Ducksalad [10]
60: Plant response rating, Foxtail, Giant [3, 16] | Plant response rating, Crabgrass, Large [4, 15] | Plant response rating, Velvetleaf [7, 15] | Plant response rating, Ducksalad [10, 17] | Plant response rating, Sedge, Umbrella [12, 17] | Sedge, Umbrella plant response rating [12]
10: Plant response rating, Barnyardgrass [1, 15]
25: Plant response rating, Rice [11, 18]
